Data set [1] concerns freshly isolated dendritic cells (CD11c+ splenocytes). Nature of the data set: Dendritic cell (DC) assay: IL-12 release. The following applies: tested for synergism and inhibition. The class given is cell-based, BALB/c mice. The text has this:
In a preferred embodiment, dendritic cell (DC) assay is used to follow interleukin-12 (IL-12) release from freshly isolated dendritic cells as an index of DC activation (see section 13). […] Briefly, by way of example but not limitation, a DC assay can be carried out as follows: freshly isolated dendritic cells (CD11c^+ splenocytes, e.g., isolated from the spleens of BALB/c mice within ten hours of assaying the activity) are suspended at a density of 0.5×10^6 cells per mL in cytokine supplemented culture media (GM-CSF, 1.0 ng/ml; IL-4, 1.0 ng/ml; IFNg, 3 ng/ml; anti mouse CD40; 0.5 mg/ml). […] Mouse IL-12 release from the dendritic cells (CD11c^+ splenocytes) is then measured using ELISA.
DCs were isolated from the spleens of male BALB/c mice 8-12 weeks of age (Harlan Bioproducts for Science, Indianapolis, Ind.), using the magnetic assisted cell separation (MACS) system purchased from Miltenyi Biotech. In summary: Spleens were aseptically removed from mice and placed into a petri dish containing 5 mL holding media (DMEM/F12 supplemented with 10% FCS and antibiotics). Each spleen was then injected with ˜0.5 mls collagenase D solution (1 mg/mL in 10 mM Hepes-NaOH, pH 7.4, 150 mM NaCl, 5 mM MgCl2, 1.8 mM CaCl2), placed into 5-10 mL collagenase D, cut into 5-6 pieces and incubated at 37° C. for 45-60 min. Collagenase-digested spleens were then processed with glass slides and passed through a 70 μm nylon mesh cell strainer. After the strainer was flushed with 40 mL culture media, cells were centrifuged (8 min @ 200×G), suspended in 1 mL PBS and subjected to red blood cell lysis by incubating the cell suspension for 5 min at room temperature in 10 mL lysis buffer (155 mM NH4Cl, 10 mM KHCO3, 0.1 mM EDTA), followed by dilution in PBS to 50 mL and centrifugation (8 min @ 200×g). The splenocytes were then suspended in 10 mL MACS buffer (PBS pH 7.2, supplemented with 2 mM EDTA and 0.5% BSA), passed through a 40 μm nylon mesh cell strainer which was flushed with 40 mL MACS buffer. A preliminary cell count was taken at this time, prior to centrifugation (8 min @ 200×G). The splenocytes were suspended at a density of 10^8 cells per 400 μL MACS buffer. Paramagnetic MicroBeads coated with anti-CD11c antibody were mixed with the splenocyte suspension (100 μL per 10^8 cells), incubated at +4° C. for 15 min, washed, suspended in 1.0 mL MACS buffer and passed through a MS+separation column placed within a strong magnetic field. CD11c^+ cells were retained in the column whereas CD11c^− cells were washed off the column as the flow-through cell fraction. CD11c^+ cells were then collected by removing the column out of the magnetic field and flushing the column twice with 1 mL of MACS buffer. CD11c^+ cells were washed once with culture media and suspended at a density of 0.5×10^6 cells per mL in cytokine supplemented culture media {DMEM/F12 supplemented with 10% FCS and gentamicin containing mouse GM-CSF (1 ng/mL), mouse IL-4 (1 ng/mL), mouse IFNγ (3 ng/mL) and anti mouse CD40 (0.5 mg/mL)}.
Mouse IL12 release from CD11c^+ splenocytes was measured using ELISA. Briefly, CD11c+ cell culture supernatants were sampled following an overnight incubation (usually 15-18 hrs). Media samples (100 μL) were added to ELISA plates coated with anti mouse IL12 (p70) capture antibody (R&D #MAB419; 250 ng in 100 μL per well) and incubated either at 37° C. or room temperature for 2 hrs. The ELISA plates were washed extensively with wash buffer after which 100 μL per well of detection antibody/detection reagent (biotinylated anti-mouse IL12; R&D #BAF419 at 50 ng/mL and streptavidin-HRP) was added. The ELISA plates were again incubated for 2 hours, washed and exposed to […] substrate solution (Pierce #34021) for 20 min. The substrate reaction was stopped by adding 100 μL/well 2M H2SO4. ELISA plates were read at 450 nm (corrected at 540 nm) and mIL12(p70) levels were calculated using an intra-ELISA standard curve (range: 2000-31.25 pg/mL).

The test system of data set [2] is Mouse sarcoma 180 cells. Type of data set: cell-based. The note with it: for Enhancement of NK-CMC compared to BEX: same conditions as BEX; for NK-CMC Activity: wide range of concentrations, in the presence and absence of IL-2 (125 U/ml). How it is done:
In one embodiment, a NK cell assay is used to assess ARP-induced cytotoxic activity of NK-like cells. Briefly, by way of example but not limitation, a NK cell assay can be carried out as follows: large granular lymphocytes (LGLs) are co-cultured with tumor cells at various ratios (effector to target ratio) for four days at 37° C., 5% CO2. […] The culture is terminated at the end of day 4 and vitally stained using a MTT cell viability quantification assay (see Mossman, T. J. Immunol. Methods 1983, 65:55; and Sigma Chemical MTT (M5655) product application note). Culture media is aspirated and the remaining cells are washed and replaced with DMEM/F12 plus FCS, containing MTT. The cells are further incubated for 4-5 hours at 37° C. Absorbance is measured with the aid of a plate reader. Decreased absorbance indicated a decrease in the number of viable cells per well (i.e., cytotoxicity). Absorbance is measured again after the MTT is solubilized by replacement of the medium with 2-propanol containing HCl, which gives a uniform color throughout the well. NK-inducing activity is calculated relative to negative (PBS/BSA) and positive (internal standard) controls.
Spleens (10-15 per experiment) were aseptically removed from male Balb/C mice 6-10 weeks of age. Splenocytes were “squeezed” out of spleens using 2 sterile glass microscope slides. Cells were collected in approximately 10 ml of DMEM/F12 containing 10% fetal calf serum (FCS) and gentamicin (50 μg/ml). Single cell suspensions were generated by passing collected cells through a 70 μm nylon mesh screen. After washing the cell pellet once with PBS (centrifuged at 675×g for 5 min), red blood cells were lysed by brief hypotonic shock (i.e. exposure to sterile distilled, deionized water, followed immediately with appropriate volumes of 10×PBS to return to isotonicity). Remaining cells were centrifuged and resuspended in DMEM/F12+10% FCS and transferred to 75 cm^2 flasks each containing 25 mls DMEM/F12+10% FCS (cells from 5 spleens per flask). The cells were incubated for 60 min. at 37° C. to selectively remove readily adherent cells (mainly fibroblasts and macrophages). After the incubation, the flasks were gently shaken and the non-adherent cells were removed, pelleted by centrifugation, and resuspended in DMEM/F12 (no supplements) (1.0 mL/10^8 cells). A 1.0 mL volume of these cell suspensions were carefully layered onto a 70%/60%/40% (2 mL/4 mL/4 mL) Percoll™ gradients in 15 ml centrifuge tubes and centrifuged for 30 min at 675×G. The cells which sediment at the 40/60 interface represent primarily large granular lymphocytes (LGLs), enriched with NK cells. These cells were carefully removed with a pasteur pipet, centrifuged, washed once with PBS and resuspended in approximately 5 mL DMEM/F12 supplemented with gentamicin (50 μg/mL) and 10% fetal calf serum. Cell counts and appropriate dilutions of LGL cells were made with these cells, as described below. For convenience this LGL cell preparation is interchangeably referred to as NK cells.
Mouse sarcoma 180 cells were seeded into 96 well plates at a density of 5×10^3 cells per well in 100 μl DMEM/F12, supplemented with 10% FCS and gentamicin (50 μg/mL). […] NK cells were added in 100 μL of supplemented DMEM/F12 at designated densities: 0 NK cells/well; 5×10^4 NK cells/well (1:10 target/effector ratio); 1.25×10^5 NK cells/well (1:25 target/effector ratio); 2.5×10^5 NK cells/well (1:50 target/effector ratio); and, 5×10^5 NK cells/well (1:100 target/effector ratio). (Note: routinely, only the 1:50 and 1:100 ratios were used for screening purposes. IL2 was added as a media supplement with final concentration of 125 U/mL.). Co-cultures were incubated for 4 days at 37° C., 5% CO2, and terminated and vitally stained using a MTT cell viability quantification assay (see Mossman, T. J. Immunol. Methods 65:55 (1983); and Sigma Chemical MTT (M5655) product application note). […]

In the case of IFNγ: Interferon gamma, the “DC/mIL12 Release” value in data set [1] is “−”. In data set [2], the NK-inducing activity result is “slight increase in NK-CMC”; the “maximal response, cytotoxicity” value is listed as “^6Weakly activates NK cells in the presence of IL-2 (maximal response < 50% cytotoxicity)”; the “Enhancement of NK-CMC compared to BEX” value is reported as “relatively weak enhancers”.
Turning to IL-5: interleukin, in data set [1], the “DC/mIL12 Release” value is given as “−”. Besides, the “NK-CMC Activity” value in data set [2] was “−”.
Consider IL-6: interleukin, for which the “DC/mIL12 Release” value in data set [1] is reported as “−”. The “NK-CMC Activity” value in data set [2] is recorded as “−”.
Regarding TGFβ, the “DC/mIL12 Release” value in data set [1] is “−”. Also, in data set [2], the “NK-CMC Activity” value is recorded as “−”.
In the case of TNFα, the “DC/mIL12 Release” value in data set [1] is “−”. Further, the “Enhancement of NK-CMC compared to BEX” value in data set [2] is listed as “relatively weak enhancers”.

B1: IL-10: interleukin (protein, UniProt P18893 19-178, looked up)
Interleukin-10: SRGQYSREDNNCTHFPVGQSHMLLELRTAFSQVKTFFQTKDQLDNILLTDSLMQDFKGYLGCQALSEMIQFYLVEVMPQAEKHGPEIKEHLNSLGEKLKTLRMRLRRCHRFLPCENKSKAVEQVKSDFNKLQDQGVYKAMNEFDIFINCIEAYMMIKMKS
B1: the “DC/mIL12 Release” value in data set [1] is reported as “inhibitory”. In addition, the “NK-CMC Activity” value in data set [2] was “−”.

B2: IL-2: Interleukin 2 (protein, UniProt P04351 21-169, looked up)
Interleukin-2: APTSSSTSSSTAEAQQQQQQQQQQQQHLEQLLMDLQELLSRMENYRNLKLPRMLTFKFYLPKQATELKDLQCLEDELGPLRHVLDLTQSKSFQLEDAENFISNIRVTVVKLKGSDNTFECQFDDESATVVDFLRRWIAFCQSIISTSPQ
As to B2, in data set [1], the “DC/mIL12 Release” value is “−”. Besides, in data set [2], the “Effect on NK-CMC (footnotes of Table 16)” value was “^4IL-2 significantly increases NK-CMC only at high concentrations”. Besides, the “basal NK-CMC activity” value in data set [2] (IL2 alone (125 U/ml), highest NK:S180 ratio (100_NK)) was 10-15%.

B3: IL-1β: interleukin (protein, UniProt P10749 118-269, looked up)
Interleukin-1 beta: VPIRQLHYRLRDEQQKSLVLSDPYELKALHLNGQNINQQVIFSMSFVQGEPSNDKIPVALGLKGKNLYLSCVMKDGTPTLQLESVDPKQYPKKKMEKRFVFNKIEVKSKVEFESAEFPNWYISTSQAEHKPVFLGNNSGQDIIDFTMESVSS
Take B3: the “DC/mIL12 Release” value in data set [1] was “−”. Moreover, the “NK-CMC Activity” value in data set [2] is given as “−^3”.
